Source: EPA's ToxValDB 9.5 (doi:10.2903/j.efsa.2013.3212)
Values after ≈ are worked out from the molar mass of the structure shown.

Experiments:
[1] = system: Rattus norvegicus; details: for NOAEL: hematological
[2] = system: Coturnix japonica; details: acute, oral, mortality
[3] = system: Apis mellifera; details: acute; duration: 48 hours; oral; unspecified; mortality
[4] = system: Daphnia magna; details: chronic/long-term; duration: 21 days; reproduction
[5] = system: Anas platyrhynchos; details: for LD50: oral, mortality
[6] = system: Oncorhynchus mykiss; details: acute; duration: 96 hours; mortality
[7] = system: Tagia sp.; details: acute; duration: 14 days; mortality
[8] = system: Plant; details: not reported; no effects
[9] = system: Canidae; details: chronic; duration: 1 years; oral; Dog Other; hematological
[10] = system: Colinus virginianus; details: reproduction developmental; reproduction
[11] = system: Pleurozium sp.; details: acute; duration: 72 hours; biomass
[12] = system: Typhlodromus pyri; test: LR50; higher = less toxic

SMILES: CCCCCCCCCCCCC1=C(OC(C)=O)C(=O)c2ccccc2C1=O [Acequinocyl]
- LD50 ([1]; acute, oral, mortality): > 4860 mg/kg
- NOAEL ([1]; chronic, duration: 2 years): 2.3 mg/kg-day
- NOAEL ([1]; repeat dose other, oral): 8 mg/kg-day
- NOAEL ([1]; reproduction developmental): 6.9 mg/kg-day
- LD50 ([2]; diet): > 847 mg/kg
- LD50 [2]: > 1940 mg/kg
- LD50 [3]: > 100 µg/piece
- NOEC [4]: 0.00098 mg/L
- LD50 ([5]; acute, unspecified): > 1940 mg/kg
- NOEL ([5]; reproductive, reproduction): 7.48 mg/kg
- LD50 ([5]; short-term, feed): > 1340 mg/kg
- LC50 [6]: 65 µg/mL (≈ 169 µM)
- LC50 [7]: > 1000 mg/kg
- LEL [8]: 5000 g/ha
- NOAEL [9]: 5 mg/kg-day
- NOEL [10]: 217 mg/kg-day
- LC50 [11]: 0.93 µg/mL (≈ 2.42 µM)
- LR50 ([12]; acute, duration: 7 days, mortality): 8.52 g/ha
- LR50 ([12]; not reported, reproduction): 10 g/ha
